Source: patent publication US9765075B2, “Substituted bridged urea analogs as sirtuin modulators” (GLAXOSMITHKLINE LLC, priority 2013, dated 2017)
Where a chain is given by its changes, count along the chain named.

Assays:
Assay in all cases: SIRT1 activation dose-response, OAcADPr assay with Ac-p53(W5) substrate
Format in all cases: biochemical
full-length hSIRT1 V224A = biological target: T1, full-length hSIRT1 V224A (Homo sapiens, UniProt Q96EB6, V224A); details: for EC50: hSIRT1 V224A, activation dose-response, Ac-p53(W5) substrate
T1 construct: The following point mutants of full-length hSIRT1 were generated; His6 (C); made in house
T1 sequence (Q96EB6 1-747 V224A): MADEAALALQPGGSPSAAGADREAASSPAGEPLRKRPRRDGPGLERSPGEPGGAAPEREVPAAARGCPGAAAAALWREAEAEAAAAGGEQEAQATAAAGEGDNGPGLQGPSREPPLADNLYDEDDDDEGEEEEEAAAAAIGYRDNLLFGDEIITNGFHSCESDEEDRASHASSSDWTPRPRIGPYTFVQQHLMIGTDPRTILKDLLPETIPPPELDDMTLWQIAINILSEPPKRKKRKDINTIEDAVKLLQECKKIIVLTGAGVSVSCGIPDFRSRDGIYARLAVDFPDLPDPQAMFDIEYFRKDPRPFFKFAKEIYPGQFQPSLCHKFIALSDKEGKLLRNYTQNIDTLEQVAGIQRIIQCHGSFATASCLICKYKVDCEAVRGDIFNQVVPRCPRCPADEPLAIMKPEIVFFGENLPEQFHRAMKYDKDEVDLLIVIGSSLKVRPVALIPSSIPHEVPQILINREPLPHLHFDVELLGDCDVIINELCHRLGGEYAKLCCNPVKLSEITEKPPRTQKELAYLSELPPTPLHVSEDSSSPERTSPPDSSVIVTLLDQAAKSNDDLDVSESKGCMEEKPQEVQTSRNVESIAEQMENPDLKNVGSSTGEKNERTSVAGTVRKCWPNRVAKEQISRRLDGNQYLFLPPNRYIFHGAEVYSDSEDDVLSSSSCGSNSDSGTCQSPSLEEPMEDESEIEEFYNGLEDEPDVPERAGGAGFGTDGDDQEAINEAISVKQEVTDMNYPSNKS
Procedure: (§1) SIRT1 activation and inhibition assays were run in reaction buffer with 0.05% BSA at 25° C. and analyzed using the OAcADPr assay. Enzyme and compound were pre-incubated for 20 minutes before addition of substrates. […] The dose-dependence of five compounds was tested and the fold-activation data were described by Eq. 1
(§2) [formula] where vx/v0 is the ratio of the reaction rate in the presence (vx) versus absence (v0) of activator (X), RVmax is the relative velocity at infinite activator concentration, EC50 is the concentration of activator required to produce one-half RVmax and b is the minimum value of vx/v0.

full-length hSIRT1 N226A = biological target: T2, full-length hSIRT1 N226A (Homo sapiens, UniProt Q96EB6, N226A); details: for EC50: hSIRT1 N226A, activation dose-response, Ac-p53(W5) substrate
T2 construct: The following point mutants of full-length hSIRT1 were generated; His6 (C); made in house
T2 sequence (Q96EB6 1-747 N226A): T1 sequence (Q96EB6 1-747 V224A) with A224V, N226A
Procedure: as §1, §2

full-length hSIRT1 E230A = biological target: T3, full-length hSIRT1 E230A (Homo sapiens, UniProt Q96EB6, E230A); details: for EC50: hSIRT1 E230A, activation dose-response, Ac-p53(W5) substrate
T3 construct: His6 (C); made in house
T3 sequence (Q96EB6 1-747 E230A): T1 sequence (Q96EB6 1-747 V224A) with A224V, E230A
Procedure: as §1, §2

Compound: Cc1cnc2c(NC(=O)N3c4nc(-c5cccc(C(F)(F)F)c5)ccc4N4CC[C@H]3C4)cccc2n1 [Example 8]
- EC50 fold shift (mutant EC50/wild-type EC50) (full-length hSIRT1 V224A): 1.87
- RVmax fold shift = (wild-type RVmax−1)/(mutant RVmax−1) (full-length hSIRT1 V224A): 0.79
- EC50 (full-length hSIRT1 V224A): 0.9 µM
- EC50 fold shift (mutant EC50/wild-type EC50) (full-length hSIRT1 N226A): 2.15
- RVmax fold shift = (wild-type RVmax−1)/(mutant RVmax−1) (full-length hSIRT1 N226A): 1.34
- EC50 (full-length hSIRT1 N226A): 1.03 µM
- EC50 fold shift (mutant EC50/wild-type EC50) (full-length hSIRT1 E230A): 1.11
- RVmax fold shift = (wild-type RVmax−1)/(mutant RVmax−1) (full-length hSIRT1 E230A): 2.39
- EC50 (full-length hSIRT1 E230A): 0.53 µM

Compound: O=C(Nc1ccccn1)N1c2nc(-c3cccc(C(F)(F)F)c3)ccc2N2CC[C@H]1C2 [Example 7]
- EC50 fold shift (mutant EC50/wild-type EC50) (full-length hSIRT1 V224A): 1.18
- RVmax fold shift = (wild-type RVmax−1)/(mutant RVmax−1) (full-length hSIRT1 V224A): 0.72
- EC50 (full-length hSIRT1 V224A): 2.6 µM
- EC50 fold shift (mutant EC50/wild-type EC50) (full-length hSIRT1 N226A): 1.78
- RVmax fold shift = (wild-type RVmax−1)/(mutant RVmax−1) (full-length hSIRT1 N226A): 1.32
- EC50 (full-length hSIRT1 N226A): 3.92 µM
- EC50 fold shift (mutant EC50/wild-type EC50) (full-length hSIRT1 E230A): 1.19
- RVmax fold shift = (wild-type RVmax−1)/(mutant RVmax−1) (full-length hSIRT1 E230A): 3.58
- EC50 (full-length hSIRT1 E230A): 2.61 µM
